Results taken from patent US12559474B2, “Triazine derivatives having virus replication inhibitory activity and pharmaceutical composition comprising the same” (priority 2021, dated 2026).
Like-named read-outs stand apart in the source and are kept apart here.

How the values were obtained:
SARS-CoV-2 = test: microbe, parasite or virus in culture; assay type: cell-based; details: Severe acute respiratory syndrome coronavirus 2, VeroE6/TMPRSS2, 72 h, 50% SARS-CoV-2 infected cell death inhibitory concentration, VeroE6/TMPRSS2 cells, 3 days culture
SARS-CoV-2 3CL protease = SARS-CoV-2 3CL protease (Severe acute respiratory syndrome coronavirus 2, UniProt P0DTD1); test: biochemical; details: 50% SARS-CoV-2 3CL protease inhibitory concentration, read-out: IC50

Row | Compound | EC50 (SARS-CoV-2; CellTiter-Glo 2.0) | IC50 (SARS-CoV-2 3CL protease; RapidFire MS) | EC50 (SARS-CoV-2; class symbols) | IC50 (SARS-CoV-2 3CL protease; given as class symbols)
1 | O=c1[nH]c2ncccc2cc1Cn1c(=O)nc(Nc2cc3cn(CCO)nc3cc2Cl)n(Cc2cc(F)c(F)c(F)c2)c1=O [Compound I-0237] | 3390 nM | 4.2 nM |  | 
2 | COC(=O)COc1ccc(Nc2nc(=O)n(Cc3ccc[nH]c3=O)c(=O)n2Cc2cc(F)c(F)c(F)c2)c(Cl)c1 [Compound I-0462] |  |  | 1000 to 10000 nM | < 100 nM
3 | Cc1cncc(-n2c(=O)nc(Nc3cc4cn(C)nc4cc3Cl)n(Cc3cc(Cl)cc(C#N)c3)c2=O)c1 [II-0186] |  |  | 1000 to 10000 nM | < 100 nM
4 | O=c1[nH]cccc1Cn1c(=O)nc(Nc2cc3cn(CCN4CCOCC4)nc3cc2Cl)n(Cc2cc(F)c(F)c(F)c2)c1=O [Compound I-0249] |  |  | 1000 to 10000 nM | < 100 nM
5 | COc1ccc(Nc2nc(=O)n(Cc3cc(C)n[nH]c3=O)c(=O)n2Cc2cc(F)c(F)c(F)c2)c(Cl)c1 [II-0084] |  |  | < 1000 nM | < 100 nM
6 | Cn1cc2cc(Nc3nc(=O)n(-c4cncc(Cl)c4)c(=O)n3Cc3ccc(F)c(C#N)c3)c(F)cc2n1 [II-0525] | 533 nM | 16 nM |  | 
7 | Cc1cncc(-n2c(=O)nc(Nc3cc4cn(C)nc4cc3Cl)n(Cc3cc(Cl)cc(Cl)c3)c2=O)c1 [II-0205] |  |  | 1000 to 10000 nM | < 100 nM
8 | COc1ccc(Nc2nc(=O)n(-c3cnnc(C)c3)c(=O)n2Cc2cc(F)c(F)c(F)c2)cc1 [II-0394] | 44900 nM | 3900 nM |  | 
9 | COc1ccc(Nc2nc(=O)n(-c3cncc4ccncc34)c(=O)n2Cc2cc(F)c(F)c(F)c2)cc1 [Compound I-0344] |  |  | < 1000 nM | < 100 nM
10 | Cc1ccc(C#N)cc1Cn1c(Nc2cc3cn(C)nc3cc2Cl)nc(=O)n(-c2cncc(Cl)c2)c1=O [II-0543] | 87 nM | 2.8 nM |  | 
11 | CCn1cc2cc(Nc3nc(=O)n(-c4cncc(C)c4)c(=O)n3Cc3ccc(F)c(C#N)c3)c(Cl)cc2n1 [II-0118] | 121 nM | 4.5 nM |  | 
12 | Cc1c2cc(Nc3nc(=O)n(Cc4ncn(C)n4)c(=O)n3Cc3cc(F)c(F)c(Cl)c3)c(Cl)cc2nn1C [II-0438] |  |  | 1000 to 10000 nM | < 100 nM
13 | COc1cc(Cl)c(Nc2nc(=O)n(Cc3ccc[nH]c3=O)c(=O)n2Cc2cc(F)c(F)c(F)c2)cn1 [Compound I-0245] |  |  | 1000 to 10000 nM | < 100 nM
14 | CNc1cncc(-n2c(=O)nc(Nc3cc4cn(C)nc4cc3Cl)n(Cc3cc(F)c(F)cc3F)c2=O)c1 [II-0600] |  |  | < 1000 nM | < 100 nM
15 | COc1ccc(Nc2nc(=O)n(Cc3cc4ccsc4[nH]c3=O)c(=O)n2Cc2cc(F)c(F)c(F)c2)cc1 [Compound I-0081] |  |  | < 1000 nM | < 100 nM
16 | O=c1[nH]cccc1Cn1c(=O)nc(Nc2ccc3c(c2)CCO3)n(Cc2cc(F)c(F)c(F)c2)c1=O [Compound I-0025] |  |  | 1000 to 10000 nM | < 100 nM
17 | O=c1nc(Nc2cc3c(cc2Cl)OCC3)n(Cc2cc(F)c(F)c(F)c2)c(=O)n1-c1cncc2ccccc12 [II-0049] |  |  | < 1000 nM | < 100 nM
18 | Cn1cc2cc(Nc3nc(=O)n(-c4cncc(Cl)c4)c(=O)n3Cc3cc(F)c(F)c(Cl)c3)ccc2n1 [II-0109] | 798 nM | 40 nM |  | 
19 | COc1ccc(Nc2nc(=O)n(Cc3ccc[nH]c3=O)c(=O)n2Cc2cc(F)c(F)c(F)c2)c(F)c1 [Compound I-0026] |  |  | 1000 to 10000 nM | < 100 nM
20 | Cc1ccc(C#N)cc1Cn1c(Nc2cc3cn(C)nc3cc2F)nc(=O)n(-c2cncc(Cl)c2)c1=O [II-0097] |  |  | < 1000 nM | < 100 nM
21 | Cn1cnc(Cn2c(=O)nc(Nc3cc4cn(C)nc4cc3Cl)n(Cc3cc(F)c(F)c(F)c3F)c2=O)n1 [Compound I-0483] | 395 nM | 9.8 nM |  | 
22 | Cn1cnc(Cn2c(=O)nc(Nc3cc4cn(C)nc4cc3Cl)n(Cc3ccc(F)cc3F)c2=O)n1 [II-0202] |  |  | 1000 to 10000 nM | < 100 nM
23 | Cn1cnc(Cn2c(=O)nc(Nc3cc4cn(C)nc4cc3F)n(Cc3cc(F)c(F)c(F)c3)c2=O)n1 [II-0064] |  |  | 1000 to 10000 nM | < 100 nM
24 | CCNc1nc2cc(Cl)c(Nc3nc(=O)n(Cc4ccc[nH]c4=O)c(=O)n3Cc3cc(F)c(F)c(F)c3)cc2s1 [Compound I-0468] |  |  | 1000 to 10000 nM | < 100 nM
25 | O=c1[nH]cccc1Cn1c(=O)nc(NCC2CCCC2)n(Cc2cc(F)c(F)c(F)c2)c1=O [II-0371] | 13300 nM | 540 nM |  | 

Row | Compound | EC50 (SARS-CoV-2; CellTiter-Glo 2.0) | IC50 (SARS-CoV-2 3CL protease; RapidFire MS) | EC50 (SARS-CoV-2; class symbols) | IC50 (SARS-CoV-2 3CL protease; given as class symbols)
26 | Cc1cncc(-n2c(=O)nc(Nc3c(Cl)cc4nn(C)cc4c3F)n(Cc3ccc(F)c(C#N)c3)c2=O)c1 [II-0458] |  |  | < 1000 nM | < 100 nM
27 | Cc1cncc(-n2c(=O)nc(Nc3cc4cn(C5COC5)nc4cc3Cl)n(Cc3ccc(F)c(C#N)c3)c2=O)c1 [II-0158] |  |  | 1000 to 10000 nM | < 100 nM
28 | Cn1cnc(Cn2c(=O)nc(Nc3cc4cn(CC(F)F)nc4cc3Cl)n(Cc3cc(F)c(F)c(Cl)c3)c2=O)n1 [II-0572] | 925 nM | 5.6 nM |  | 
29 | COc1ccc(Nc2nc(=O)n(-c3cncc4ccccc34)c(=O)n2Cc2ccc(F)c(C#N)c2)c(C)c1 [II-0169] |  |  | < 1000 nM | < 100 nM
30 | Cc1cncc(-n2c(=O)nc(Nc3cc4sc(NC5CC5)nc4cc3Cl)n(Cc3ccc(F)c(C#N)c3)c2=O)c1 [II-0303] |  |  | < 1000 nM | < 100 nM
31 | Cc1cncc(-n2c(=O)nc(Nc3cc4cn(C)nc4cc3Cl)n(Cc3cccc(F)c3Cl)c2=O)c1 [II-0188] |  |  | < 1000 nM | < 100 nM
32 | Cc1cncc(-n2c(=O)nc(Nc3cc4cn(C)nc4cc3Cl)n(Cc3cc(Cl)ccc3F)c2=O)c1 [II-0362] |  |  | < 1000 nM | < 100 nM
33 | Cc1cc(F)cc(Cn2c(Nc3cc4cn(C)nc4cc3Cl)nc(=O)n(-c3cncc(C)c3)c2=O)c1 [II-0212] |  |  | < 1000 nM | < 100 nM
34 | Cc1cncc(-n2c(=O)nc(Nc3ccc4nn(C)cc4c3)n(Cc3ccc(F)c(C#N)c3)c2=O)c1 [II-0173] | 272 nM | 15 nM |  | 
35 | COc1ccc(Nc2nc(=O)n(Cc3ccc[nH]c3=O)c(=O)n2Cc2cc(F)c(F)c(F)c2)cc1 [Compound I-0020] |  |  | 1000 to 10000 nM | < 100 nM
36 | COc1ccc(Nc2nc(=O)n(-c3cc(C)cnn3)c(=O)n2Cc2cc(F)c(F)c(F)c2)cc1 [II-0392] | 20800 nM | 1000 nM |  | 
37 | Cc1cncc(-n2c(=O)nc(Nc3cc4cn(C)nc4cc3Cl)n(Cc3ccc(F)cc3F)c2=O)c1 [II-0185] |  |  | < 1000 nM | < 100 nM
38 | CNC(=O)Cn1cc2cc(Nc3nc(=O)n(-c4cncc5ccccc45)c(=O)n3Cc3cc(F)c(F)c(F)c3)c(Cl)cc2n1 [II-0509] |  |  | 1000 to 10000 nM | < 100 nM
39 | Cn1cnc(Cn2c(=O)nc(Nc3cc4cn(CC5CC5)nc4cc3Cl)n(Cc3cc(Cl)c(F)cn3)c2=O)n1 [II-0269] |  |  | 1000 to 10000 nM | < 100 nM
40 | Cc1nc2cc(Cl)c(Nc3nc(=O)n(Cc4ccc[nH]c4=O)c(=O)n3Cc3ccc(F)c(Cl)c3)cc2n1C [Compound I-0007] |  |  | 1000 to 10000 nM | < 100 nM
41 | O=c1[nH]cccc1Cn1c(=O)nc(NC2CCCCC2)n(Cc2cc(F)c(F)c(F)c2)c1=O [II-0228] | 5000 nM | 240 nM |  | 
42 | Cc1cncc(-n2c(=O)nc(Nc3cc4cn(C)nc4cc3Cl)n(Cc3cc(F)cc(C#N)c3)c2=O)c1 [II-0161] |  |  | < 1000 nM | < 100 nM
43 | CC(=O)NCCn1cc2cc(Nc3nc(=O)n(-c4cncc5ccccc45)c(=O)n3Cc3cc(F)c(F)c(F)c3)c(Cl)cc2n1 [Compound I-0471] |  |  | 1000 to 10000 nM | < 100 nM
44 | Cn1cc2cc(Nc3nc(=O)n(-c4cncc(Cl)c4)c(=O)n3Cc3cc(C#N)c(F)cn3)c(Cl)cc2n1 [II-0538] |  |  | 1000 to 10000 nM | < 100 nM
45 | CC(C)(O)Cn1cc2cc(Nc3nc(=O)n(Cc4ncccn4)c(=O)n3Cc3cc(F)c(F)c(Cl)c3)c(Cl)cc2n1 [II-0241] | 1390 nM | 24 nM |  | 
46 | Cc1ccc(Cl)cc1Cn1c(Nc2cc3cn(C)nc3cc2Cl)nc(=O)n(Cc2ncn(C)n2)c1=O [II-0052] |  |  | 1000 to 10000 nM | < 100 nM
47 | Cn1cnc(Cn2c(=O)nc(Nc3cc4sc(N)nc4cc3Cl)n(Cc3cc(F)c(F)cc3F)c2=O)n1 [II-0536] |  |  | 1000 to 10000 nM | < 100 nM
48 | Cc1cncc(-n2c(=O)nc(Nc3cc4c(C)n(C)nc4cc3Cl)n(Cc3cc(F)c(F)c(F)c3)c2=O)c1 [II-0449] |  |  | < 1000 nM | < 100 nM
49 | Cc1cncc(-n2c(=O)nc(Nc3ccc4nn(C)cc4c3)n(Cc3cc(C#N)ccc3Cl)c2=O)c1 [II-0422] | 290 nM | 6.4 nM |  | 
50 | O=c1[nH]cccc1Cn1c(=O)nc(Nc2cc3c(cc2Cl)OCC3)n(Cc2cc(F)c(F)cc2F)c1=O [Compound I-0016] |  |  | < 1000 nM | < 100 nM
